Measured values: patent publication US20240425479A1, “HALO-SUBSTITUTED AMINO AZA-HETEROARYL COMPOUNDS AS INHIBITORS OF THE HAEMATOPOIETIC PROGENITOR KINASE 1 (HPK1)” (priority 2021, published 2024)

Tests used:
[1] = biological target: T1, Recombinant (1-346) HPK1 (h) (Homo sapiens, UniProt Q92918); assay: HPK1 human STE kinase enzymatic radiometric assay; format: biochemical; settings: read-out: HPK1 IC50 nM Range
T1 construct: Recombinant (1-346) HPK1 (h) is incubated with 8 mM MOPS pH 7.0
T1 sequence (Q92918 1-346): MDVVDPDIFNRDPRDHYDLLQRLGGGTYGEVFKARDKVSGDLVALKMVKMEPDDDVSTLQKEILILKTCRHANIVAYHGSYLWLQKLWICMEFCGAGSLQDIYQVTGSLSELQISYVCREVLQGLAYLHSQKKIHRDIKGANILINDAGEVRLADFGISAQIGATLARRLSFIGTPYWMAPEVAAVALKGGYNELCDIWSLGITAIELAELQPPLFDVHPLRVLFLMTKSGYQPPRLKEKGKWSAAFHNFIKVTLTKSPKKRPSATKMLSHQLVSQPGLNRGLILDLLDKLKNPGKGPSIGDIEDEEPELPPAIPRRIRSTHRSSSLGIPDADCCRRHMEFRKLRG
In short: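 Compounds in 3-fold, 9-point serial dilution; kinase (residues 1-346) phosphorylates myelin basic protein (0.33 mg/mL) using [gamma-33P]-ATP at pH 7.0 (MOPS, EDTA, Mg acetate) for 40 min, room temperature. Acid-quenched mixture filtered onto P30 mats; incorporated radioactivity read by scintillation counting.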

Lck (h) = Lck (h) (Homo sapiens, UniProt P06239); assay: Lck human STE kinase enzymatic radiometric assay; format: biochemical; settings: read-out: Lck IC50 nM Range
Chain of Lck (h) (P06239 whole entry): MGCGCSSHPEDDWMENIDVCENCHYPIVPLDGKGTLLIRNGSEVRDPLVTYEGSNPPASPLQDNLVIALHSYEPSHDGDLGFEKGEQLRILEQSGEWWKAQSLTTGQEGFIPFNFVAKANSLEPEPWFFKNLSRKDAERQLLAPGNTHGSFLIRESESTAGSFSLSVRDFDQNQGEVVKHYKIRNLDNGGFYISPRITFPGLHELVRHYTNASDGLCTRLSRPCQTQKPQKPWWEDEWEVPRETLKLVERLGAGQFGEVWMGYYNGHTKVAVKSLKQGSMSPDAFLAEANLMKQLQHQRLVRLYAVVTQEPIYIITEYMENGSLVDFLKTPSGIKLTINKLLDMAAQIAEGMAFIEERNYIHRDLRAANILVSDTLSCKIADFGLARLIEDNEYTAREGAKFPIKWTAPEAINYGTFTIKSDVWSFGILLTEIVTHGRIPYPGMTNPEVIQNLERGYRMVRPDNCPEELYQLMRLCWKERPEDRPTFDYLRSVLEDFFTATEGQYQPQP

| IC50 [1] | IC50 (Lck (h)) | SMILES |
| --- | --- | --- |
| 0.1 to 10 nM | > 1000 nM | Cc1[nH]c(=O)c2ccc(-c3nc(-c4ccc(C5CCOCC5)c(CN(C)C)c4)c(F)nc3N)cc2c1F [Example I-97, 6-(3-amino-6-(3-((dimethylamino)methyl)-4-(tetrahydro-2H-pyran-4-yl)phenyl)-5-fluoropyrazin-2-yl)-4-fluoro-3-methylisoquinolin-1(2H)-one] |
| 0.1 to 10 nM | > 1000 nM | Nc1nc(F)c(-c2ccc(N3CCOCC3)c(CN3CCCC3)c2)nc1-c1ccc2c(c1)CCNC2=O [Example I-113, 6-(3-amino-5-fluoro-6-(4-morpholino-3-(pyrrolidin-1-ylmethyl)phenyl)pyrazin-2-yl)-3,4-dihydroisoquinolin-1(2H)-one] |
| 0.1 to 10 nM | > 1000 nM | Cc1c[nH]c(=O)c2ccc(-c3nc(-c4ccc(C5CCOCC5)c(CN(C)C)c4)c(F)nc3N)cc12 [Example I-98, 6-(3-amino-6-(3-((dimethylamino)methyl)-4-(tetrahydro-2H-pyran-4-yl)phenyl)-5-fluoropyrazin-2-yl)-4-methylisoquinolin-1(2H)-one] |
| 0.1 to 10 nM | > 1000 nM | Nc1nc(F)c(-c2ccc(N3CCOCC3)c(CN3CCC3)c2)nc1-c1cc2c(cc1F)C(=O)NCC2 [Example I-145, 6-(3-amino-6-(3-(azetidin-1-ylmethyl)-4-morpholinophenyl)-5-fluoropyrazin-2-yl)-7-fluoro-3,4-dihydroisoquinolin-1(2H)-one] |
| 0.1 to 10 nM | 101 to 1000 nM | CC(C)N1CCN(c2ccc(-c3nc(-c4ccc5c(=O)[nH]cc(Cl)c5c4)c(N)nc3F)cc2)CC1 [Example I-78, 6-(3-amino-5-fluoro-6-(4-(4-isopropylpiperazin-1-yl)phenyl)pyrazin-2-yl)-4-chloroisoquinolin-1(2H)-one] |
| 0.1 to 10 nM | 101 to 1000 nM | CC(C)N1CCN(c2ccc(-c3nc(-c4cc(F)c5c(=O)[nH]ccc5c4)c(N)nc3F)cc2)CC1 [Example I-21, 6-(3-amino-5-fluoro-6-(4-(4-isopropylpiperazin-1-yl)phenyl)pyrazin-2-yl)-8-fluoroisoquinolin-1(2H)-one] |
| 0.1 to 10 nM | > 1000 nM | COc1ccc(-c2nc(-c3ccc4c(=O)[nH]cc(F)c4c3)c(N)nc2F)cc1CN(C)C [Example I-267, 6-(3-amino-6-(3-((dimethylamino)methyl)-4-methoxyphenyl)-5-fluoropyrazin-2-yl)-4-fluoroisoquinolin-1(2H)-one] |
| 0.1 to 10 nM | > 1000 nM | CN(C)Cc1cc(-c2nc(-c3cc(F)c4c(=O)[nH]cc(F)c4c3)c(N)nc2F)ccc1C1CCOCC1 [Example I-121, 6-(3-amino-6-(3-((dimethylamino)methyl)-4-(tetrahydro-2H-pyran-4-yl)phenyl)-5-fluoropyrazin-2-yl)-4,8-difluoroisoquinolin-1(2H)-one] |
| 0.1 to 10 nM | > 1000 nM | Cc1nc2cc(-c3nc(-c4ccc(C5CCOCC5)c(CN(C)C)c4)c(F)nc3N)cc(F)c2c(=O)[nH]1 [Example I-91, 7-(3-amino-6-(3-((dimethylamino)methyl)-4-(tetrahydro-2H-pyran-4-yl)phenyl)-5-fluoropyrazin-2-yl)-5-fluoro-2-methylquinazolin-4(3H)-one] |
